Data set [1] concerns chronic myelogenous leukemia. The following applies: cited from earlier work; for bone marrow cells with the translocation: marrow of treated patients.
For data set [2] the following is noted: pH 1, 37 degrees C.; cited from earlier work.
The test system of data set [3] is HL-60 (monocyte-like cell line). Nature of the data set: cells. The following applies: Homo sapiens.
Source text: (§3) Of the other five cell lines, two were T cell lines, one called CEM and the other Molt-4, and the remaining three were monocyte-like cell lines, designated THP-1, U937 and HL-60, respectively.
The subject of data set [4] is SB (B cell line). Nature of the data set: cells. The following applies: Homo sapiens.
Procedure: (§4) Seven different cell lines were treated with varying concentrations of 2-chloro-9,1'-beta-2'-deoxy-2'-fluoro-D-arabinofuranosyladenine (CAFdA) to determine percent viability. CAFdA concentrations ranging from 0 to about 260 nM were used to treat each cell line in vitro.
Data set [5] relates to CEM, Increased 5'-nucleoside.
Source text: (§5) ^1 Concentration that produced 50 percent reduction in all numbers
The subject of data set [6] is Peripheral blood lymphocytes.
Source text: as §5
Data set [7] relates to CEM (T cell line). In words: cells. The conditions noted are these: Homo sapiens.
Source text: as §3
Data set [8] relates to DHL9, Increased ribonucleotide reduction. Nature of the data set: cells. The following applies: Homo sapiens, 120 h, read-out: ID50.
Source text: as §5
Data set [9] relates to THP-1 (monocyte-like cell line). In words: cells. The following applies: Homo sapiens.
Source text: as §3
The test system of data set [10] is U937 (monocyte-like cell line). Nature of the data set: cells. The conditions noted are these: Homo sapiens, U-937.
Source text: as §3
Data set [11] relates to CEM, wild type. In words: cells. The conditions noted are these: Homo sapiens, 120 h, read-out: ID50.
Source text: as §5
For data set [12], the system named is Monocytes. Nature of the data set: cells. The following applies: Homo sapiens, Monocyte, 120 h, read-out: ID50.
Source text: as §5
The subject of data set [13] is Monocytes.
Source text: as §5
For data set [14], the system named is Molt-4 (T cell line). Nature of the data set: cells. The conditions noted are these: Homo sapiens.
Source text: as §3
The test system of data set [15] is delayed-type hypersensitivity. Nature of the data set: Oral and IP effects on delayed-type hypersensitivity (DTH) to ovalbumin (Example 5, first study). The conditions noted are these: for inhibition of swelling compared to saline control: 24 and 48 hours after ovalbumin challenge, p <0.01 by Student's t-test. The data set is classed as in vivo, guinea pig. On the procedure: (§1) Delayed-type hypersensitivity (DTH) is a cell-mediated immune response that typically takes longer than 12 hours to develop. In the guinea pig, a DTH reaction to an antigen can be established by first immunizing the animal with the antigen in an adjuvant such as Freund's complete adjuvant. Subsequent intradermal injection of the antigen causes no change for at least 10 hours, after which there is a gradual increase in erythema and swelling in response to antigen injection. This response peaks about at about 24 hours after challenge, then gradually subsides.
(§2) Histologically, the inflammatory response is characterized by intense inundation of the site with mononuclear cells, of which about half are lymphocytes and the other half monocytes. DTH is therefore an indicator of a monocyte-mediated immune reaction.
In one study, guinea pigs were sensitized to ovalbumin in adjuvant. […] The animals were then injected with ovalbumin intradermally to elicit the DTH response. The mean area of the swelling size was measured for each animal (nine or ten animals were treated for each protocol).

In data set [16] the test system is CEM, deoxyeytidine kinase deficient. In words: cells. The following applies: Homo sapiens, 120 h, read-out: ID50.
Source text: as §5
The subject of data set [17] is CEM, Increased 5'-nucleoside. Nature of the data set: cells. The conditions noted are these: Homo sapiens, 120 h, read-out: ID50.
Source text: as §5
The subject of data set [18] is Peripheral blood lymphocytes. Nature of the data set: cells. The conditions noted are these: Homo sapiens, Lymphocyte, 120 h, read-out: ID50.
Source text: as §5
Data set [19] concerns CEM, wild type.
Source text: as §5
Data set [20] relates to DHL9, Increased ribonucleotide reduction.
Source text: as §5
The subject of data set [21] is K562 (myeloid cell line). In words: cells. The following applies: Homo sapiens.
Procedure: as §4
Data set [22] has as its system delayed-type hypersensitivity. In words: Effects of different dosages of 2-CdA on DTH to ovalbumin (Example 5, second study). In kind it is in vivo, guinea pig. The following applies: 5 mg/kg; 24 and 48 hours post-challenge; p <0.01 by Student's t-test. On the procedure: as §1, §2
Three days after treatment, the animals were challenged with ovalbumin intradermally. The areas of the skin lesions were measured at 6, 24, and 48 hours after challenge.

For α-interferon, the “bone marrow cells with the translocation” value in [1] was “sometimes loses the clone with the translocation”.
Regarding `NC(=O)NO` [hydroxyurea], the “bone marrow cells with the translocation” value in [1] is on record as “still contains a predominance of cells with the translocation”.
As for `CS(=O)(=O)OCCCCOS(C)(=O)=O` [busulfan], in data set [1] (CML treatment), the “serious complication ("busulfan lung")” value is “bronchopulmonary dysplasia with pulmonary fibrosis”. Also, the “bone marrow cells with the translocation” value in [1] is “still contains a predominance of cells with the translocation”.
As for `Nc1ncnc2c1ncn2[C@@H]1O[C@H](CO)C[C@@H]1F` [2'-fluoro-2',3'-dideoxyarabinose], the stability result in data set [2] is “stable”.
By viability is commonly meant a read-out of living cells in per cent, often relative to untreated cells. High values mean better survival, low ones a greater loss of cells. On to `Nc1nc(Cl)nc2c1ncn2[C@@H]1O[C@H](CO)[C@@H](O)[C@@H]1F` [CAFdA, 2-chloro-9,1'-beta-2'-deoxy-2'-fluoro-D-arabinofuranosyladenine], for which the viability at 0.05 µM in data set [3], in [7] and in [9] was no more than 60% each time. The viability at 0.06 µM in [3], in data set [7], in data set [9], in data set [10] and in data set [14] was less than 20% each time. Besides, the viability at 0.13 µM in data set [3], in [7], in [9], in [10] and in data set [14] was less than 10% each time. Moreover, the values for the viability at 0.26 µM in data set [4] and in data set [21] were 90% and 40%, respectively. Further, the “CAFdA/2-CdA (ID50 ratio)” value in data set [5] worked out at 2.1; in data set [6], 1.9; in data set [13], 2.1; in [19], 3.1; in data set [20], 15. In addition, the IC50 amounted to 6000 nM in data set [8]; 67 nM in data set [11]; 47 nM in data set [12]; 716000 nM in data set [16]; 126 nM in data set [17]; 18 nM in [18]. The “inhibition of swelling compared to saline control” value in [15] (1 mg/kg, intraperitoneal) is on record as “significant inhibition of swelling”; in data set [15] (1 mg/kg, oral), “significant inhibition of swelling”. Also, the “effectiveness when given orally” value in data set [15] (oral, without the protection of an enteric coating (2-CdA), preliminary in vivo studies) was “effective”.
For `Nc1ncnc2c1ncn2[C@@H]1O[C@H](CO)C[C@H]1F` [2'-fluoro-2',3'-dideoxyribose], in [2], the stability result is “stable”.
Regarding `C[C@@H]1C[C@H]2[C@@H]3CCC4=CC(=O)C=C[C@]4(C)[C@@]3(F)[C@@H](O)C[C@]2(C)[C@@]1(O)C(=O)CO` [dexamethasone, reference compound], the “inhibition of swelling compared to saline control” value in data set [15] (5 mg/kg, intraperitoneal) was “significant inhibition of swelling”; in data set [15] (5 mg/kg, oral), “significant inhibition of swelling”; in data set [22], “effective at inhibiting swelling”.
